This is an account of results in patent US8329757B2, “Curcumin analog compositions and related methods” (Charlesson, LLC, priority 2008, dated 2012).

Read-outs that look alike come from different tables or passages of the source.

Common to all, as to assay type: cell-based
Assay [1] concerns Primary bovine retinal capillary endothelial cells (BRCECs). In words: MTT cell proliferation assay, BRCECs. The note with it: 72 hours, mean±SD, n=3, read-out: IC50 (μM) BRCEC. The protocol:
(§1) Primary bovine retinal capillary endothelial cells (BRCECs), pericytes and human prostate adenocarcinoma cells (PC-3), and human breast cancer cells (MCF-7 and MDA-MB-231) were treated with the CLT010 compounds at various concentrations for 72 hours.
On the technique in general: Tetrazolium assays rely on reduction of a dye to a coloured formazan, in cell work by metabolically active cells.

Assay [2] deals with TNF-α-stimulated generation of reactive oxygen species in human retinal pigment epithelial cells (ARPE-19). Description: TNF-α-stimulated intracellular ROS generation (CM-H2DCFDA fluorescence). The note with it: for effect on ROS production: same concentration range (2-8 μM), same conditions; for reduction of ROS: 24 h pretreatment, TNF-α 20 ng/ml, ARPE-19, n=6. On the procedure:
The intracellular generation of ROS was stimulated by TNF-α. Human retinal pigment epithelial cells (ARPE-19) were cultured on 96-well plates and pretreated with or without aminoguanidine, curcumin, and the CLT010 compounds for 24 h. TNF-α was added into culture medium at the concentration of 20 ng/ml and incubated with the cells for 1 h at 37° C. To measure ROS generation, 5-(and -6)-chloromethyl-2′,7′-dichlorodihydrofluorescein diacetate (CM-H2DCFDA) was added to the cells and incubated for 45 min. The relative fluorescence intensity representing the intracellular generation of ROS was measured using FLUOstar Omega at an emission wavelength of 535 nm, after excitation at 485 nm. TNF-α stimulated the intracellular generation of ROS by 36.9±8.4%, compounded with the untreated cells. Novel antioxidants reduced the intracellular ROS. At concentration of 8 μM, CLT010-01 reduced ROS by 40.5±6.3% (p<0.01, n=6), and CLT010-07 reduced ROS by 50.6±6.8% (p<0.01, n=6).
According to embodiments of experimental data shown in FIG. 2, ARPE-19 cells were pretreated with aminoguanidine, curcumin, CLT010-01, CLT010-07, and CLT010-12 at indicated concentrations for 24 h prior to the addition of TNF-α (20 ng/ml). The cells were incubated with CM-H2DCFDA for 45 min. Relative fluorescent intensity in the untreated cells, TNF-α-stimulated cells and compound plus TNF-α-treated cells. In FIG. 2B, the percentage of relative fluorescent intensity in each compound plus TNF-α-treated cells compared with that of TNF-α-stimulated cells is shown as the compound plus TNF-α vs TNF-α alone: *p<0.05, p<0.01, n=6.

The subject of assay [3] is human prostate adenocarcinoma cells (PC-3). Description: MTT cell proliferation assay, PC-3. The conditions noted are these: 72 hours, mean±SD, n=3. On the procedure: as §1
The test system of assay [4] is human breast cancer cells (MCF-7). Description: MTT cell proliferation assay, MCF-7. The note with it: mean±SD, n=3. The protocol: as §1
The subject of a further assay is Du145. In words: MTT cell proliferation assay, Du145. The conditions noted are these: mean±SD, n=3. On the procedure: [The source words this procedure for another cell line and reports this cell line under the same test.] as §1
Assay [5] has as its system VEGF in human retinal capillary endothelial cells (HRCECs). In words: CoCl2-induced VEGF over-expression, ELISA of conditioned medium. The note with it: 24 h, CoCl2 200 μM; for reduction of VEGF levels: n=3. The protocol: To address if new antioxidants block VEGF over-expression induced by hypoxia, we measured levels of VEGF in human retinal capillary endothelial cells (HRCECs) after the exposure of CLT010-01, CLT010-07, and CLT010-12. The effect of new oxidants was compared with curcumin. HRCECs were seeded at a density of 4×10^4 cells/well in 400 μl of growth medium in triplicate in gelatin-coated 24-well plates, 24 h prior to the experiments. VEGF over-expression was induced by 200 μM of cobalt chloride (CoCl2). Cells were incubated with the medium in the presence or absence of CoCl2 and CoCl2 plus curcumin, CLT010-01, CLT010-07 and CLT010-12 at the concentrations of 0.5, 2, and 4 μM. The conditioned medium was collected 24 h after treatment. VEGF concentrations were measured by ELISA specific for VEGF using a commercial kit (R & D Systems, Minneapolis, Minn.). CoCl2 induced VEGF over-expression by 53.1±13.9%, compared to the untreated cells. The novel antioxidants reduced the expression of VEGF (FIGS. 3A and 3B). CLT010-01 reduced the VEGF levels by 48.8±7.8% at 4 μM (p<0.001, n=3). CLT010-07 inhibited the VEGF levels by 45.2±8.5 (p<0.01, n=3) and 57.2±4.4% (p<0.001, n=3) at 2 and 4 μM, respectively. CLT010-12 suppressed the VEGF expression by 24.2±10 (p<0.01, n=3), 58.2±7.2 (p<0.001, n=3), and 67.3±4.4% (p<0.001, n=3) at 0.5, 2 and 4 μM (p<0.001, n=3), respectively (FIG. 3B).
According to embodiments of experimental data shown in FIG. 3, HRCECs were cultured in the presence or absence of CoCl2, CoCl2 plus curcumin, CLT010-01, CLT010-07, and CLT010-12 at concentrations as indicated. The conditioned medium was collected after 24 h treatment. VEGF levels were measured by ELISA. In FIG. 3A, VEGF concentrations in the medium from the untreated cells, CoCl2-treated cells, and CoCl2 plus compound-treated cells are shown. In FIG. 3B, the percentage of VEGF concentrations in the medium from CoCl2 plus compound-treated cells compared with that of the medium from CoCl2-treated cells is shown. CoCl2 plus compounds plus vs. CoCl2: *p<0.01, p<0.001, n=3.
On the technique in general: In an ELISA, binding on a coated surface is turned into a signal by an enzyme label.

Another assay relates to PC-3M. Description: MTT cell proliferation assay, PC-3M. The note with it: 72 hours, mean±SD, n=3. The protocol: [The source words this procedure for another cell line and reports this cell line under the same test.] as §1
The subject of a further assay is pericytes. In words: MTT cell proliferation assay, pericytes. The note with it: 72 hours. The protocol: as §1
In assay [6] the test system is human breast cancer cells (MDA-MB-231). In words: MTT cell proliferation assay, MDA-MB-231. The conditions noted are these: mean±SD, n=3. On the procedure: as §1
For another assay, the system named is cancer cells. In words: MTT cell proliferation assay, cancer cells (summary over lines). The note with it: Homo sapiens, 72 hours, range across cancer cell lines, read-out: IC50, growth of cancer cells (range over cell lines). The protocol: as §1

Regarding `N=C(N)NN` [Aminoguanidine, reference compound], the IC50 in assay [1] (Bos taurus, Endothelial cell) is > 32 µM. Besides, the “effect on ROS production” value in [2] is reported as “did not significantly affect”.

For the molecule `COc1cc(/C=C/C(=O)CC(=O)/C=C/c2ccc(OS(N)(=O)=O)c(OC)c2)ccc1OS(N)(=O)=O` [CLT010-01], the IC50 in [3] is 15.8 ± 1.6 µM; in assay [4] (72 hours) it was 5.5 ± 1.2 µM; in the assay on Du145 (72 hours), 25.9 ± 0.3 µM; with PC-3M it was 8.5 ± 0.5 µM; in assay [6] (72 hours) it was 3.1 ± 1.3 µM. In addition, in assay [5] (4 μM), the “reduction of VEGF levels” value was 48.8±7.8%. Moreover, the “reduction of ROS” value in assay [2] (8 μM) came out at 40.5±6.3%. The “inhibition of the growth of pericytes” value with pericytes is listed as “did not significantly inhibit”.

Consider `COc1cc(/C=C/c2cc(/C=C/c3ccc(OS(N)(=O)=O)c(OC)c3)[nH]n2)ccc1OS(N)(=O)=O` [CLT010-07], for which the IC50 in assay [3] is 1.8 ± 0.3 µM; in assay [4] (72 hours) it was 6.5 ± 0.1 µM; with Du145 (72 hours), 5.3 ± 2.4 µM; in [1] it was 3.9 ± 0.1 µM; in the assay with PC-3M it was 6.7 ± 0.7 µM; in [6] (72 hours) it was 6.2 ± 1.6 µM. For the same molecule, the “reduction of VEGF levels” value was 45.2±8.5% in assay [5] (2 μM) and 57.2±4.4% in [5] (4 μM). For the same molecule, the “reduction of ROS” value in assay [2] (8 μM) worked out at 50.6±6.8%. Besides, in the assay with pericytes, the “inhibition of the growth of pericytes” value is “did not significantly inhibit”.

As to `COc1cc(/C=C/C(=O)/C=C/c2cc(OC)c(OS(N)(=O)=O)c(OC)c2)cc(OC)c1OS(N)(=O)=O` [CLT010-12], the IC50 in assay [3] came out at 1.9 ± 0.04 µM; in assay [4] (72 hours), 1.5 ± 0.1 µM; in the assay with Du145 (72 hours) it was 6.3 ± 0.2 µM; in assay [1], 3.6 ± 0.2 µM; in the assay with PC-3M, 4.2 ± 0.1 µM; in assay [6] (72 hours) it was 0.6 ± 0.1 µM. The results for the “reduction of VEGF levels” value in [5] (0.5 μM), in assay [5] (2 μM) and in assay [5] (4 μM) were 24.2±10%, 58.2±7.2% and 67.3±4.4%, respectively. The “reduction of ROS” value in assay [2] (2 μM) was 15.3±2.9%; in assay [2] (4 μM) it was 32.9±5.9%; in assay [2] (8 μM), 55.1±3.9%. In addition, in the assay with pericytes, the “inhibition of the growth of pericytes” value is listed as “did not significantly inhibit”.

As to `COc1cc(/C=C/C(=O)CC(=O)/C=C/c2ccc(O)c(OC)c2)ccc1O` [Curcumin], the IC50 in the assay with cancer cells was 9.5 to 25.6 µM; in assay [3] (Homo sapiens), 9.5 ± 1.6 µM; in assay [4] (Homo sapiens, MCF7, 72 hours), 21.5 ± 4.7 µM; in the assay with Du145 (Homo sapiens, DU-145, 72 hours) it was 20.7 ± 3.5 µM; in assay [1] (Bos taurus, Endothelial cell) it was 13.8 µM; in the assay on PC-3M (Homo sapiens, PC-3M), 10.7 ± 1.3 µM. The molecule also yielded a half-inhibitory concentration (IC50) in assay [6] (Homo sapiens, MDA-MB-231, 72 hours) of 25.6 ± 4.8 µM. The “inhibition of the release of VEGF from cells into medium” value in assay [5] (0.5, 2, and 4 μM, p>0.05, n=3) was “did not significantly inhibit”. For the same molecule, the “effect on ROS production” value in [2] is “did not significantly affect”.

Usually IC50 stands for the point on the concentration scale where inhibition reaches its midpoint.
